The nature of assay [1]: Paired sensory difference test of whole wheat bread bitterness (20 panelists). Type of assay: in vivo. As to conditions: paired comparison, 20 participants, nose clips, bread crumb chewed 10 seconds; Pvalue <0.05. The text has this:
Twenty participants were recruited by Flavor Research and Education Center (FREC) at The Ohio State University. The whole wheat bread samples (control and treatment) were cut into 3 cm×2 cm×1 cm (L×W×H) squares of crumb the day before the test and stored at room temperature in sealed 2 oz cups labeled with a 3-digit codes. Each panelist evaluated one pair of samples containing the control sample and the treatment sample. Panelists used nose clips during the evaluation in order to prevent interactions with olfactory responses. Panelists were instructed to place the entire piece of bread crumb in their mouth, chew for 10 seconds, and evaluate the maximum bitter intensity perceived. After evaluating each sample in the pair, panelists were asked to choose the most bitter sample. The serving order of each bread sample was balanced. Water was used as a palate cleanser.
Compusense Cloud Software version 7.2 (Compusense, Guelph, Canada) was used for data collection. Approval of the sensory evaluation protocol was granted by the Ethics Committee, The Ohio State University (IRB #2019B0402). Paired Student t-tests was executed with SPSS Statistics Version 25 (International Business Machines Corp., Armonk, NY).

The test system of assay [2] is pinellic acid formation. Description: Pinellic acid concentration in whole wheat bread (LC/MS/MS). How it is done:
(§1) The concentration of pinellic acid was analyzed for both control and treatment dough samples using the following method: The 15 mg of dough (or 27 mg of bread) was extracted with 1 mL 1:1 IPA/H2O (v/v) spiked with prostaglandin-F2α ([…]) ISTD. Samples were sonicated for 10 min followed by shaking using the GenoGrinder at 1000 rpm for 10 min. Samples were then diluted 1:50 and sample clean-up was carried out using a 96-well Oasis PRIME HLB plate (1 cc, 30 mg sorbent). After sample load (250 μL) and wash (750 μL, 10% acetonitrile (aq.) with 0.1% formic acid) steps, the retentate was eluted with 500 μL 90% acetonitrile (aq.) with 0.1% formic acid. Samples were further diluted to 2 mL using water with 0.1% formic acid. The standard calibration curve was prepared using 6-points ranging from 0.24 ng/ml to 500 ng/mL.
Quantitative analysis was conducted using MRM acquisition. LC/MS/MS analysis was conducted using a Waters ACQUITY H-class UPLC system coupled with a Xevo TQ-S mass spectrometer (Waters Co.). […]
Wheat breads were made using a modified AACC straight-dough bread-making method (AACC, 1999). […] The concentration of pinellic acid was analyzed for both control and spiking whole wheat bread samples as described for the dough analysis. […]

Assay [3] has as its system pinellic acid formation. Description: Pinellic acid concentration in HRW Everest flour dough (LC/MS/MS). As to conditions: treatment dough (946.5 ng Schaftoside in 12 μL water per 15 mg HRW Everest flour) vs control; pvalue <0.05. How it is done:
For the dough analysis 15 mg of Hard Red Winter (“HRW”) Everest flour was weighed into 2 Eppendorf tubes containing one ¼ inch stainless steel balls, followed by the addition of 12 μL of water (4:5 water/flour ratio) to make a control dough sample. The treatment dough sample was similarly prepared to the control sample with the exception that 946.5 ng of Schaftoside in 12 μL of water (4:5 water/flour ratio) was added instead of pure water.
as §1
Quantitative analysis was conducted using MRM acquisition. […]

In the case of `O=c1cc(-c2ccc(O)cc2)oc2c([C@@H]3OC[C@H](O)[C@H](O)[C@H]3O)c(O)c([C@@H]3O[C@H](CO)[C@@H](O)[C@H](O)[C@H]3O)c(O)c12` [Schaftoside, schaftoside], in assay [1], the “perceived bitterness of treatment bread vs control bread” value is “significantly less bitter”. The “pinellic acid concentration in treatment bread” value in assay [2] (schaftoside raised from 88.4 to 151.5 mg/kg (68.1 mg/kg flour added) prior to bread making, control bread 308.64 mg/kg, pvalue <0.05) amounted to 228.6 mg/kg. Moreover, the “reduction in pinellic acid formation” value in assay [2] (treatment vs control, schaftoside added to flour prior to bread making) was found to be 26%. Also, the “reduction in pinellic acid content” value in assay [3] is 30%.

The record behind these values is US20260101915A1, “APIGENIN GLYCOSIDES FLAVOR ENHANCERS” (priority 2019, published 2026).
